The numbers were not newly measured in patent US8673587B2, “Methods for identifying allosteric and other novel acyl-coenzyme A:cholesterol acyltransferase inhibitors” (Trustees of Dartmouth College, priority 2010, dated 2014), which cites them from elsewhere.

SMILES strings stand for the structures.

Data set [1] relates to lysohpospholipid acyltransferase (LPAT). The settings on record: cited from earlier work.
The subject of data set [2] is amyloid precursor protein (APP). The settings on record: animal models for AD; cited from earlier work.
The conditions of data set [3]: fed to animals; cited from earlier work.

Take `CCCCCCCCCCC(C)(C)C(=O)Nc1c(OC)cc(OC)cc1OC` [CI976]: in data set [1], the “inhibition of LPAT” value was “has been shown to inhibit”. For the compound `CC(C)c1cc(C(C)C)c(CC(=O)NS(=O)(=O)Oc2c(C(C)C)cccc2C(C)C)c(C(C)C)c1` [CI1011], the “mature/immature ratio of human APP” value in data set [2] is on record as “decreased”. The VLDL-triglyceride content result in data set [3] is given as “reduces the VLDL-triglyceride content”.
